Source: patent US20240116857A1 (St. Louis University, priority 2022, published 2024)
Converted amounts (≈) assume the structure as drawn. Read-outs that look alike come from different tables or passages of the source.

Experiments:
[1] = Cytotoxicity assay (CellTiter AQueous One Solution, MTS); format: cell-based; details: human, HEK293 cells, 24 h incubation
Experimental: Cytotoxicity of the compounds was evaluated using the CellTiter AQueous One Solution Cell Proliferation Assay (MTS; Promega) as previously described (2). HEK293 cells were incubated with a 2-fold serially diluted compounds for 24 h at 37° C. with 5% CO2, followed by addition of 20 μL of CellTiter AQueous and further incubated for 4 h at 37° C. The absorbance at 490 nm was recorded using a Tecan Spark 10 M plate reader. All measurements were done in three replicas. The growth curves were then fitted to a sigmoidal equation to determine the cytotoxicity concentration CC50.

E. coli BW25113 = assay: MIC, 2-fold broth dilution, E. coli BW25113; format: cell-based, Escherichia coli; details: Escherichia coli
[2] = E. coli BW25113, asterisk in column 1-10, read-out: MIC, μM 1-10
[3] = E. coli BW25113, asterisk in column 10-50, read-out: MIC, μM 10-50
[4] = E. coli BW25113, asterisk in column >50, read-out: MIC, μM >50

Structure (SMILES) | MIC (E. coli BW25113; [4]) [µM] | also measured
C[n+]1ccc(Nc2ccc(NC(=O)c3ccc(C(=O)Nc4ccc(Nc5cc[n+](C)cc5)cc4)c([N+](=O)[O-])c3)cc2)cc1 [Example 25, 4,4′-((((2-nitroterephthaloyl)bis(azanediyl))bis(4,1-phenylene))bis(azanediyl))bis(1-methylpyridin-1-ium)] |  | CC50 at 24 h [1]: 350 µM; MIC (E. coli BW25113; [2]): 1 to 10 µM
C[n+]1ccc(Nc2ccc(NC(=O)c3ccc(C(=O)Nc4ccc(Nc5cc[n+](C)cc5)cc4)c(N)c3)cc2)cc1 [Example 30, 4,4′-((((2-aminoterephthaloyl)bis(azanediyl))bis(4,1-phenylene))bis(azanediyl))bis(1-methylpyridin-1-ium)] |  | CC50 at 24 h [1]: 480 µM; MIC (E. coli BW25113; [2]): 1 to 10 µM
COc1cc(NC(=O)c2ccc(-c3ccc(C(=O)Nc4ccc([N+](C)(C)C)c(OC)c4)cc3)cc2)ccc1[N+](C)(C)C [Example 35, 4,4′-(([1,1′-biphenyl]-4,4′-dicarbonyl)bis(azanediyl))bis(2-methoxy-N,N,N-trimethylbenzenaminium)] |  | CC50 at 24 h [1]: 650 µM; MIC (E. coli BW25113; [3]): 10 to 50 µM
C[N+](C)(C)c1ccc(NC(=O)c2ccc(-c3ccc(C(=O)Nc4ccc([N+](C)(C)C)c(Cl)c4)cc3)cc2)cc1Cl [Example 39, 4,4′-(([1,1′-biphenyl]-4,4′-dicarbonyl)bis(azanediyl))bis(2-chloro-N,N,N-trimethylbenzenaminium)] |  | CC50 at 24 h [1]: 330 µM; MIC (E. coli BW25113; [2]): 1 to 10 µM
C[n+]1ccc(Nc2ccc(NC(=O)c3ccc(C(=O)Nc4ccc(Nc5cc[n+](C)cc5)cc4)c(C(F)(F)F)c3)cc2)cc1 [Example 47] |  | CC50 at 24 h [1]: 350 µM; MIC (E. coli BW25113; [3]): 10 to 50 µM
COc1cc(NC(=O)c2ccc(-c3ccc(C(=O)Nc4ccc(N5CCCCC5)cc4)cc3)cc2)ccc1N(C)C [Example 128] |  | MIC (E. coli BW25113; [2]): 1 to 10 µM (≈ 0.549 to 5.49 µg/mL)
C[N+](C)(C)c1ccc(NC(=O)c2ccc(-c3ccc(C(=O)Nc4ccc([N+]5(C)CCCCC5)cc4)cc3)cc2)cc1F [Example 129] |  | MIC (E. coli BW25113; [2]): 1 to 10 µM
C[N+](C)(C)c1ccc(NC(=O)c2ccc(-c3ccc(C(=O)Nc4ccc([N+](C)(C)C)c(F)c4)cc3)cc2)cc1 [Example 130] | > 50 | 
C[N+](C)(C)c1ccc(NC(=O)c2ccc(-c3ccc(C(=O)Nc4ccc([N+](C)(C)C)c(Cl)c4)cc3)cc2)cc1F [Example 131] | > 50 | 
C[N+](C)(C)c1ccc(NC(=O)c2ccc(-c3ccc(C(=O)Nc4ccc([N+](C)(C)CCCCc5cn(CCOCCOCCOCCNC(=O)CCCC[C@@H]6SC[C@@H]7NC(=O)N[C@@H]76)nn5)c(F)c4)cc3)cc2)cc1F [Example 132] | > 50 | 
C[N+](C)(C)c1ccc(NC(=O)c2ccc(-c3ccc(C(=O)Nc4ccc([N+](C)(C)CCCc5cn(CCOCCOCCOCCNC(=O)CCCC[C@@H]6SC[C@@H]7NC(=O)N[C@@H]76)nn5)c(F)c4)cc3)cc2)cc1F [Example 133] | > 50 | 
C[N+](C)(C)c1ccc(NC(=O)c2ccc(-c3ccc(C(=O)Nc4ccc([N+](C)(C)Cc5cn(CCOCCOCCOCCNC(=O)CCCC[C@@H]6SC[C@@H]7NC(=O)N[C@@H]76)nn5)c(F)c4)cc3)cc2)cc1F [Example 134] | > 50 | 
C[N+](C)(C)c1ccc(NC(=O)c2ccc(-c3ccc(C(=O)Nc4ccc([N+](C)(C)C)c(OCCCCCCCCc5cn(CCOCCOCCONC(=O)CCCC[C@@H]6SC[C@@H]7NC(=O)N[C@@H]76)nn5)c4)cc3)cc2)cc1F [Example 135] | > 50 | 
C[N+](C)(C)c1ccc(NC(=O)c2ccc(-c3ccc(C(=O)Nc4ccc([N+](C)(C)C)c(OCCCCc5cn(CCOCCOCCOCCNC(=O)CCCC[C@@H]6SC[C@@H]7NC(=O)N[C@@H]76)nn5)c4)cc3)cc2)cc1F [Example 136] | > 50 | 
C[N+](C)(C)c1ccc(NC(=O)c2ccc(-c3ccc(C(=O)Nc4ccc([N+](C)(C)C)c(OCCCc5cn(CCOCCOCCOCCNC(=O)CCCC[C@@H]6SC[C@@H]7NC(=O)N[C@@H]76)nn5)c4)cc3)cc2)cc1F [Example 137] | > 50 | 
C[N+](C)(C)c1ccc(NC(=O)c2ccc(-c3ccc(C(=O)Nc4ccc([N+](C)(C)C)c(OCCc5cn(CCOCCOCCOCCNC(=O)CCCC[C@@H]6SC[C@@H]7NC(=O)N[C@@H]76)nn5)c4)cc3)cc2)cc1F [Example 138] | > 50 | 
C#CCCN(C)c1ccc(NC(=O)c2ccc(-c3ccc(C(=O)Nc4ccc(N(C)C)c(F)c4)cc3)cc2)cc1F [Example 139] | > 50 | 
CN(C)c1ccc(NC(=O)c2ccc(-c3ccc(C(=O)Nc4ccc(N(C)C)c([N+](=O)[O-])c4)cc3)c(S(C)(=O)=O)c2)cc1 [Example 140] | > 50 | 
CN(C)c1ccc(NC(=O)c2ccc(-c3ccc(C(=O)Nc4ccc(N(C)C)c([N+](=O)[O-])c4)cc3)cc2)cc1[N+](=O)[O-] [Example 141] |  | MIC (E. coli BW25113; BW25113, read-out: MIC, μM >50): > 50 µM
CCCCCCCCc1cn(CCOCCOCCOCCNC(=O)CCCC[C@H]2SC[C@H]3NC(=O)N[C@H]32)nn1 [Example 142] |  | MIC (E. coli BW25113; [2]): 1 to 10 µM (≈ 0.583 to 5.83 µg/mL)
CN(C)c1ccc(NC(=O)c2ccc(-c3ccc(C(=O)Nc4ccc(N5CCCCC5)c(F)c4)cc3)cc2)cc1F [Example 143] |  | MIC (E. coli BW25113; [2]): 1 to 10 µM (≈ 0.555 to 5.55 µg/mL)
C[N+](C)(C)c1ccc(NC(=O)c2ccc(-c3ccc(C(=O)Nc4ccc([N+]5(C)CCCCC5)cc4)cc3)cc2)cc1 [Example 144] | > 50 | 
COc1cc(NC(=O)c2ccc(-c3ccc(C(=O)Nc4ccc([N+]5(C)CCCCC5)cc4)cc3)cc2)ccc1[N+](C)(C)C [Example 145] | > 50 | 
C[N+](C)(C)c1ccc(NC(=O)c2ccc(-c3ccc(C(=O)Nc4ccc([N+](C)(C)C)c([N+](=O)[O-])c4)cc3)c(S(C)(=O)=O)c2)cc1 [Example 146] | > 50 | 
C[N+](C)(C)c1ccc(NC(=O)c2ccc(-c3ccc(C(=O)Nc4ccc([N+](C)(C)C)c(N)c4)cc3)c(S(C)(=O)=O)c2)cc1 [Example 147] | > 50 | 
CN(C)c1ccc(NC(=O)c2ccc(-c3ccc(C(=O)Nc4ccc(N(C)C)c([N+](=O)[O-])c4)cc3C#N)cc2)cc1 [Example 148] | > 50 | 
CN(C)c1ccc(NC(=O)c2ccc(-c3ccc(C(=O)Nc4ccc(N(C)C)c(C#N)c4)cc3C#N)cc2)cc1 [Example 149] | > 50 | 
C[N+](C)(C)c1ccc(NC(=O)c2ccc(-c3ccc(C(=O)Nc4ccc([N+](C)(C)C)c(C#N)c4)cc3C#N)cc2)cc1 [Example 150] | > 50 | 
C[N+](C)(C)c1ccc(NC(=O)c2ccc(-c3ccc(C(=O)Nc4ccc([N+](C)(C)C)c(N)c4)cc3C#N)cc2)cc1 [Example 153] |  | MIC (E. coli BW25113; [2]): 1 to 10 µM
C[N+](C)(C)c1ccc(NC(=O)c2ccc(-c3ccc(C(=O)Nc4ccc([N+](C)(C)C)c([N+](=O)[O-])c4)cc3C#N)cc2)cc1 [Example 154] | > 50 | 
